Test results reported in US5502053A, “HIV protease inhibitor compounds” (Merck & Co., Inc., priority 1994, dated 1996).

Target: T1, HIV protease (Human immunodeficiency virus type 1 group M subtype B, UniProt P03366)
T1 construct: made in house; host or cells: Escherichia coli
Assay: Assay for Inhibition of Microbial Expressed Vital Protease (protease expressed in Eschericia coli, peptide substrate, HPLC of products)
Assay type: biochemical
Conditions: peptide substrate Val-Ser-Gln-Asn-(betanapthyl)Ala-Pro-Ile-Val 0.5 mg/mL; 50 mM Na acetate, pH 5.5, 30° C., 1 hour; 15 ul of 0.33 nM protease
Procedure: Assay for Inhibition of Microbial Expressed Vital Protease
Inhibition studies of the reaction of the protease expressed in Eschericia coli with a peptide substrate Val-Ser-Gln-Asn-(betanapthyl)Ala-Pro-Ile-Val, 0.5 mg/mL at the time the reaction is initiated! were in 50 mM Na acetate, p H 5.5, at 30° C. for 1 hour. Various concentrations of inhibitor in 1.0 ul DMSO were added to 25 ul of the peptide solution in water. The reaction is initiated by the addition of 15 ul of 0.33 nM protease (0.11 ng) in a solution of 0.133M Na acetate pH 5.5 and 0.1% bovine serum albumin. The reaction was quenched with 160 ul of 5% phosphoric acid. Products of the reaction were separated by HPLC (VYDAC wide pore 5 cm C-18 reverse phase, acetonitrile gradient, 0.1% phosphoric acid). The extent of inhibition of the reaction was determined from the peak heights of the products.

IC50 [nM] | Compound
11.5 to 58 | CC(C)(C)CC(=O)C[C@@H](CC1CCCCC1)[C@@H](O)C[C@@H](Cc1ccccc1)C(=O)N[C@H]1c2ccccc2C[C@H]1O [Compound B, N-(2(R)-hydroxy-1(S)-indanyl)-5(R)-cyclohexylmethyl-9,9-dimethyl-4(S)-hydroxy-7-oxo-2(R)-phenylmethyl decaneamide]
11.5 to 58 | CCCCC(=O)C[C@@H](CC1CCCCC1)[C@@H](O)C[C@@H](Cc1ccccc1)C(=O)N[C@H]1c2ccccc2C[C@H]1O [Compound A, N-(2(R)-hydroxy-1(S)-indanyl)-5(R)-cyclohexylmethyl-4(S)-hydroxy-7-oxo-2(R) -phenylmethyl undecaneamide]
